Reference: patent US20210246140A1, “MODULATORS OF METABOTROPIC GLUTAMATE RECEPTOR 2” (The General Hospital Corporation, priority 2020, published 2021)

Legend:
[1] = Plasma stability in rat serum; format: in vitro ADME; conditions: 37° C., diltiazem as positive control
Method: Compound stability in rat serum was examined using a published method. [See ref. 57] Rat serum (100 μL, Abeam, Inc, No. ab7488) and test compound or control compound (2.5 μL, 1 mM in DMSO) was added to the individual tube. The tube was vortexed and incubated at 37° C. During the incubation, aliquots of 50 μL samples were quenched with ice-cold acetonitrile at 0, 15, 30, 60, and 120 min time points, respectively. After mixing, the quenched samples were centrifuged, and the supernatant was withdrawn for analysis by HPLC (Agilent 1260 infinity II LC System, XTerra™ MS C18, 5μ, 2.1×250 mm, 20 mM ammonium formate (A)/acetonitrile (B), 0.25 mL/min, gradient of 5% to 100% B). The samples were assayed at least three times. Compound 1-OH was used as internal standard while diltiazem was used as a positive control. The percentage remaining was calculated by (peak area at the specific time point)/(peak area at 0 min)×100% (FIG. 7).
The in vitro plasma and liver microsomal stability of 1 and 2 were studied by incubating the test compounds in rat serum and rat liver microsomes as well as NADPH cofactor, respectively, using previously published methods [see refs. 57, 58]. […] The solution stability of 1 was evaluated with buffer solutions at pH 5.0, 7.4 and 9.4, respectively (FIGS. 10 and 20) [see refs. 61].

[2] = tested on: other mGlu receptors (mGluR1, mGluR3, mGluR4, mGluR5, mGluR6, mGluR8); assay: Selectivity among mGluR subtypes (Ca2+ mobilization assay and cAMP assay); format: cell-based; conditions: mGluR1 and mGluR5 by Ca2+ mobilization; mGluR3, 4, 6, 8 by cAMP assay
Method: The Gq coupled receptors (mGluR1 and mGluR5) were tested using Ca^2+ mobilization assay. mGluR1 stable cell lines were plated into poly-L-lysine (PLL) coated 384-well black clear bottom cell culture plates with complete Basal Medium Eagle (BME) buffer, which was composed of 10% dialyzed FBS, penicillin G (100 units/mL), streptomycin (100 μg/mL) with tetracycline (1 μg/mL) at density of 20,000 cells in 40 μl per well for overnight. On the other hand, HEK-293 Cells transiently transfected using the calcium phosphate method with cDNA encoding mGluR5 for 40 h were plated into the plate with complete BME at density of 20,000 cells in 40 μL per well for 8 h. mGluR1 stable cells or cells transiently expressing mGluR5 were incubated with 20 μL of the calcium dye (FLIPR Calcium 4 Assay Kit; Molecular Devices) diluted in the assay buffer (1×FIBSS, 2.5 mM probenecid, and 20 mM HEPES, pH 7.4) for 45 min at 37° C. and 15 min at room temperature. To measure agonist activity of receptors, the drug plates were prepared with different concentrations of test or reference compound at 3 times the desired final concentration. […] Once loaded in FLIPR (Molecular Devices), basal fluorescence was measured for 10 s, then 10 μL of test or reference compounds were added, followed by continued fluorescence measurement for an additional 120 s. […]

mGluR2 = target: T1, mGluR2 (Homo sapiens, UniProt Q14416); conditions: calcium flux, Gα15 or Gα16 forced coupling; read-out: previously reported mGluR2 EC50; cited from earlier work
T1 construct: expressed in transfected cells
T1 sequence (Q14416 19-872): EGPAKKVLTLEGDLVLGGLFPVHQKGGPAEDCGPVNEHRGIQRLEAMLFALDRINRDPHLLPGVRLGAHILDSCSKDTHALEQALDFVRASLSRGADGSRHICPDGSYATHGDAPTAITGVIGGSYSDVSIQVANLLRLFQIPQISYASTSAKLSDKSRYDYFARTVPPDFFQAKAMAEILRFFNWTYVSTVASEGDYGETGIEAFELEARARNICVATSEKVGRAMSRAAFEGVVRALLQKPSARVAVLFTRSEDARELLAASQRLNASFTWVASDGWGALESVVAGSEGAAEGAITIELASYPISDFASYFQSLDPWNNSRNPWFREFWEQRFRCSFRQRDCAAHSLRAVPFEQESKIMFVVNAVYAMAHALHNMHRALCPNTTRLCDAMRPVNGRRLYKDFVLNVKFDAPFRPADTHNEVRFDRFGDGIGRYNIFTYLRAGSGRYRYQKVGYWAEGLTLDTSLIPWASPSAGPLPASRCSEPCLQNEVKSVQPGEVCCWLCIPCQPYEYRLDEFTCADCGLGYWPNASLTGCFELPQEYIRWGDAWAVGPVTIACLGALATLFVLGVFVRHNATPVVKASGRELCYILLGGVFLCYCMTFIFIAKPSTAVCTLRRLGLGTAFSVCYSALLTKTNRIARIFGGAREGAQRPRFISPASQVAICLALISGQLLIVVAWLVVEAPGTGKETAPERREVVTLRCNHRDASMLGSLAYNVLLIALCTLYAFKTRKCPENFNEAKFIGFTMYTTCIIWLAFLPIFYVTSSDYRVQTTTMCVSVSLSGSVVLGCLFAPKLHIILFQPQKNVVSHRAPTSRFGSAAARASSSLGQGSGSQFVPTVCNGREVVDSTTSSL

Determination of Log P = format: physicochemical; conditions: experimental lipophilicity
Method: Determination of Log P The Log P was determined using a reversed-phase HPLC method. First, seven reference compounds were examined to obtain the linear regression of the log P against the log of capacity factors by the expression: log Pow=a+b*log k. The Log P of these reference compounds was already been determined. The capacity factor k was calculated by the expression: k=(tR−t0)/t0. The retention time tR of test compound was determined on the HPLC (Agilent 1260 infinity II LC System, XTerra™ MS Cis 5μ 2.1×250 mm, methanol/water=75/25, 0.25 mL/min). The dead-time to was measured by using thiourea. The linear regression equation of the Log P against the log of capacity factors was generated in Excel: log Pow=3.049+2.429*log k, where R^2 was 0.9964. The retention time of compound 1, 2, and 7 was also determined on the HPLC under the same condition and each test was repeated three times (FIG. 5).
The experimental lipophilicity was measured by using liquid-liquid partition between n-octanol and water (“shake-flask method”) [see ref. 54]. […] The plasma protein binding comprises compounds' binding to albumin, α1-acid glycoprotein and lipoproteins once delivered to the bloodstream. This property was evaluated for compounds 1 and 2 by equilibrium dialysis [see ref. 56], where two chambers were separated by a dialysis membrane (MWCO 8 kD). The plasma protein bindings of 1 and 2 are 87.2% and 88.7%, respectively (see FIGS. 20 and 6). Therefore, the high plasma free fraction of compounds 1 and 2 (>10%) would allow enough free drug concentration in blood stream to reach the brain targets.

## COc1cc(C(F)(F)F)ccc1C1CCN(Cc2nc3ncccc3n2C)CC1 [Compound 1]
[1]
  stability in rat plasma: much more stable than diltiazem
[2]
  selectivity against other mGlu receptor subtypes: > 100 fold
mGluR2
  EC50: 13 nM
Determination of Log P
  Log P: 3.65
